Measurements as given in patent US12319681B2, “Tripartite androgen receptor eliminators, methods and uses thereof” (SPG Therapeutics, Inc., priority 2017, dated 2025).
Like-named read-outs stand apart in the source and are kept apart here.

Key:
[1] = system: normal Human Adult Primary Epidermal Keratinocyte cell line; conditions: 72 h
Description: (§3) For the Keratinocyte assay, normal Human Adult Primary Epidermal Keratinocyte cell line (ATCC PCS-200-011) was maintained in EPIUFE® Medium, with 60 μM calcium (Thermo MEPISOOCA) supplemented with Human Keratinocyte Growth Supplement, 100 U/mL penicillin, and 100 μg/mL streptomycin at 37° C. with 5% C02. For experiments, cells were seeded at 70% confluence per well in 100 μL of medium in 96-well plates. Reverse transfection was done on the cells using Lipofectamine 3000 (Life Technologies) with plasmids according to manufacturer's instructions. Briefly, 0.3 μL transfection reagent per 100 ng DNA were incubated with P3000 reagent and Opti-Mem prior to addition of cells. After 16 hours, medium was removed and replaced with dosing medium.
(§4) Each ARE tested was prepared in DMSO. Dosing medium was prepared at the time of treatment by serial diluting stock solution into medium. Ethanol concentrations in media never exceeded 0.1%. […] Negative control wells contained 100 L medium/well with 1 μL of ethanol/mL of medium and an appropriate amount of DMSO. […] Cells were incubated 72 hours at 37° C. without CO2.

in vitro = conditions: human
Description: as §3, §4

[2] = system: MDA-kb2 mammary gland breast cancer cell line; assay: MDA-kb2 cell viability (Trypan Blue exclusion); conditions: MDA-kb2, 1.0 nM DHT, 24 hours
Description: (§5) For the MDA-kb2 assay, MDA-kb2 mammary gland breast cancer cell line was maintained in L-15 media (Gibco) supplemented with 10% FBS, 100 U/mL penicillin, 100 μg/mL streptomycin, and 0.25 μg/mL amphotericin B at 37° C., without CO2. For experiments, cells were plated at 1.0×10^4 cells (50% confluence) per well in 100 μL of medium in 96-well plates. When cells were attached (after 6 hours), medium was removed and replaced with dosing medium containing 10% charcoal stripped FBS.
(§6) A 5α-Androstan-17β-ol-3-one (DHT) stock solution was prepared at 1,000× in ethanol. Each ARE tested was prepared in DMSO. Dosing medium was prepared at the time of treatment by serial diluting stock solution into medium. Ethanol concentrations in media never exceeded 0.1%. […] Negative control wells contained 100 μL medium/well with 1 μL of ethanol/mL of medium and an appropriate amount of DMSO. Each plate also contained 1.0 nM DHT with an ARE or without an ARE as a positive control. Cells were incubated 24 hours at 37° C. without CO2.
(§7) To assess for cell viability, cells were first visually examined under a phase-contrast microscope to record cell confluence, morphological changes, and presence of drug crystallization as well as to observe signs of cytotoxity such as, e.g., detachment, vacuolization, membrane degradation, or lack of phase brightness. After microscopic inspection, a Trypan Blue exclusion assay was performed to assess cell viability and cell number for each well. Each well was washed with 0.5 mL volume of PBS. 30 µL of Trypan Blue was added to each well for 5-10 minutes. Total cell number and total viable cell number will be counted from 1 number of fields per well, in triplicate.

[3] = system: normal Human Adult Primary Epidermal Keratinocyte cell line; assay: Keratinocyte cell viability (Trypan Blue exclusion, Example 10); conditions: keratinocytes, 1.0 nM DHT, 24 hours
Description: For the Keratinocyte assay, normal Human Adult Primary Epidermal Keratinocyte cell line (ATCC PCS-200-011) was maintained in EPIUFE® Medium, with 60 μM calcium (Thermo MEPISOOCA) supplemented with Human Keratinocyte Growth Supplement, 100 U/mL penicillin, and 100 μg/mL streptomycin at 37° C. with 5% C02. For experiments, cells were seeded at 70% confluence per well in 100 μL of medium in 96-well plates. […] After 16 hours, medium was removed and replaced with dosing medium.
A 5α-Androstan-17β-ol-3-one (DHT) stock solution was prepared at 1,000× in ethanol. […] Dosing medium was prepared at the time of treatment by serial diluting stock solution into medium. Ethanol concentrations in media never exceeded 0.1%. […] Negative control wells contained 100 μL medium/well with 1 μL of ethanol/mL of medium and an appropriate amount of DMSO. Each plate also contained 1.0 nM DHT with an ARE or without an ARE as a positive control. Cells were incubated 24 hours at 37° C. without CO2.
as §7

androgen receptor (AR) [4] = biological target: T1, androgen receptor (AR) (Homo sapiens, UniProt P10275); assay: Keratinocyte AR Reporter Gene Assay, 24 and 72 hours continuous exposure (Example 12); format: cell-based; conditions: keratinocytes
T1 construct: human keratinocytes transfected with an AR luciferase reporter gene; endogenous in cells; host or cells: normal human adult primary epidermal keratinocytes (ATCC PCS-200-011)
T1 sequence (P10275 1-920): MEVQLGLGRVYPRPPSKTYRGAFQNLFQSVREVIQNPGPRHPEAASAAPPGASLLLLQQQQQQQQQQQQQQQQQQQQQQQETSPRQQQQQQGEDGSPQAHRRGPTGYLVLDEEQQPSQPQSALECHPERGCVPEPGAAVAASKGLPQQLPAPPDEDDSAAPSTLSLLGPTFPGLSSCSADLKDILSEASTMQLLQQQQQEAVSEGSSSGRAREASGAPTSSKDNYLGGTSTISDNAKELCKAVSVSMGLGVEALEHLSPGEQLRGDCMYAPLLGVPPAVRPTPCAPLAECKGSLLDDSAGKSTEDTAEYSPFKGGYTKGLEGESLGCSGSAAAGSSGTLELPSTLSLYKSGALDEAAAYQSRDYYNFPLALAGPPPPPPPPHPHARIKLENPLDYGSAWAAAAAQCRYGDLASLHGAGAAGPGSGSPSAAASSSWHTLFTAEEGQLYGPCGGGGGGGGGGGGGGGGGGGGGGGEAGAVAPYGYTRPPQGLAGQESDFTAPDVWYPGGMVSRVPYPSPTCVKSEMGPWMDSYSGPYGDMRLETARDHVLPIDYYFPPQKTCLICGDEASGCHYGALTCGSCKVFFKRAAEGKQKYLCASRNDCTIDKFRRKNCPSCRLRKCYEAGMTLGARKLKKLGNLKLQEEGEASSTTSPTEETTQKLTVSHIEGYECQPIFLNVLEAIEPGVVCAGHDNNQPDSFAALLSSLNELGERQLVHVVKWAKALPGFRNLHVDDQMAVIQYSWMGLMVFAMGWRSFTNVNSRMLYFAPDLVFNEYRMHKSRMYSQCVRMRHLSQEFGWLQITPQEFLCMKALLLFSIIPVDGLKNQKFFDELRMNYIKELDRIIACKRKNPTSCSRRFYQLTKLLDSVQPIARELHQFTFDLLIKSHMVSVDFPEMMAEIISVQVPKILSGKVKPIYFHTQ
Description: (§1) To assess ARE-mediated inhibition, an AR luciferase assay was performed. After washing cells with 1×PBS, 20 μL lysis buffer (25 mM Tris/phosphate, 4 mM EGTA, 1% Triton, 10% glycerol, 2 mM DTT) was added per well, incubated for 5 minutes with gentle shaking and store at −80° C. On the day of assay, the plates were thawed to ambient temperature and 80 μL of assay buffer (25 mM glycylglycine, 15 mM MgCl2. 5 mM ATP, 0.1 mg/ml BSA) was added to each well. Plates are then processed on a microplate reader (POLARstar Omega) by injecting 100 μL of 1 mM D-luciferin per well, followed by chemiluminescence measurement of 3 seconds at onset of injection. Luciferase activity was determined, measured, and normalized to Relative Light Units (RLU). AR reporter gene activity reduction values were calculated as follows: AR reporter gene activity=1−(average signal (treatment group)/average signal (treatment group without drug).
This example illustrates how to determine the inhibitory activity of an ARE disclosed herein using a cell-based androgen receptor transcriptional reporter assay using primary human keratinocytes.
Results were analyzed for IC50 and IC90 values in GraphPad Prism using a four-parameter logistic curve equation. Bottom constraints were set to 1 (level of uninduced control).

[5] = Hamster Skin Penetration Assays; conditions: 8-hour time point
Description: The applied formulation dose for each sample was 10.0 μL and each sample was run in four replicates. The samples were evaluated at the 8-hour time point for compound absorption in epidermal and dermal layers and penetration into receptor medium.

androgen receptor (AR) [6] = biological target: androgen receptor (AR) (Homo sapiens, UniProt P10275); assay: MDA-kb2 AR luciferase reporter gene assay (1.0 nM DHT); format: cell-based; conditions: read-out: Gene Activity Reduction
Description: This example illustrates how to determine the inhibitory activity of an ARE disclosed herein using a cell-based androgen receptor transcriptional reporter assay using an engineered cell line.
(§2) Each ARE tested was prepared in DMSO. […] Ethanol concentrations in media never exceeded 0.1%.
as §1

[7] = system: MDA-kb2 mammary gland breast cancer cell line; conditions: human, 24 h
Description: as §5, §6, §7

androgen receptor (AR) [8] = biological target: T1, androgen receptor (AR); assay: Keratinocyte AR luciferase reporter gene assay (Example 10); format: cell-based; conditions: keratinocytes, 1.0 nM DHT, 24 hours, read-out: Gene Activity Reduction
Description: as §2, §1

androgen receptor (AR) [9] = biological target: T1, androgen receptor (AR); assay: Keratinocyte AR protein level ELISA (Example 10); format: cell-based; conditions: 24 h, keratinocytes, AR protein level by ELISA, read-out: AR Reduction
Description: as §2
To assess levels of AR, an ELISA was performed.

[10] = Keratinocyte Cell Viability Assay (Example 11, 72 hours); conditions: human
Description: as §3, §4

[11] = system: normal Human Adult Primary Epidermal Keratinocyte cell line; assay: as above; conditions: keratinocytes, 72 hours, 0 μM = 100
Description: as §3, §4

CC(=O)N1CCN(c2ccc(OC[C@H]3CO[C@](Cn4ccnc4)(c4ccc(Cl)cc4Cl)O3)cc2)CC1 (racemic) [SPG-002, Ketoconazole]
Cell Viability ([1]; 0.62 μM): 93.61 ± 3.38 | Cell Viability ([1]; 1.85 μM): 90.96 ± 2.34 | Cell Viability ([1]; 5.56 μM): 71.22 ± 0.88 | Cell Viability ([1]; 16.67 μM): 41.59 ± 1.76 | Cell Viability ([1]; 50 μM): 7.29 ± 12.16 | IC50 at 72 h (in vitro): 11 µM | Cell Viability ([2]; 0.1 μM): 97% | Cell Viability ([3]; 0.1 μM): 95% | Cell Viability ([3]; 3.0 μM): 94% | Cell Viability ([3]; 10 μM): 95%

Cc1ncsc1-c1ccc([C@H](C)NC(=O)[C@@H]2C[C@@H](O)CN2C(=O)[C@@H](NC(=O)COCC(=O)N2CCN(c3ccc(OC[C@H]4CO[C@](Cn5ccnc5)(c5ccc(Cl)cc5Cl)O4)cc3)CC2)C(C)(C)C)cc1 [SPG-007]
IC50 (androgen receptor (AR) [4]; 24-hr Treatment): 4.58 µM | IC90 (androgen receptor (AR) [4]; 24-hr Treatment): 73.8 µM | Maximum Inhibition (androgen receptor (AR) [4]; 24-hr Treatment): 67% | IC50 (androgen receptor (AR) [4]; 72-hr Treatment): 1.5 µM | IC90 (androgen receptor (AR) [4]; 72-hr Treatment): 22.2 µM | Maximum Inhibition (androgen receptor (AR) [4]; 72-hr Treatment): 80%

CC(=O)S[C@@H]1CC2=CC(=O)CC[C@]2(C)[C@H]2CC[C@@]3(C)[C@@H](CC[C@@]34CCC(=O)O4)[C@H]12 [SPG-001, Spironolactone]
Cell Viability ([1]; 0.62 μM): 113.05 ± 1.09 | Cell Viability ([1]; 1.85 μM): 108.09 ± 1.79 | Cell Viability ([1]; 5.56 μM): 99.27 ± 1.50 | Cell Viability ([1]; 16.67 μM): 82.73 ± 1.34 | Cell Viability ([1]; 50 μM): 58.33 ± 2.39 | IC50 at 72 h (in vitro): 50 µM | skin absorption (in words) [5]: good amount | skin penetration (in words) [5]: good amount | Cell Viability ([2]; 0.1 μM): 99% | Cell Viability ([2]; 1.0 μM): 98% | Cell Viability ([2]; 3.0 μM): 98% | Cell Viability ([2]; 10 μM): 98% | Cell Viability ([3]; 0.1 μM): 92% | Cell Viability ([3]; 1.0 μM): 94% | Cell Viability ([3]; 3.0 μM): 92% | Cell Viability ([3]; 10 μM): 95%

Cc1ncsc1-c1ccc([C@H](C)NC(=O)[C@@H]2C[C@@H](O)CN2C(=O)[C@@H](NC(=O)COCCOCCOCC(=O)N2CCN(c3ccc(OC[C@H]4CO[C@](Cn5ccnc5)(c5ccc(Cl)cc5Cl)O4)cc3)CC2)C(C)(C)C)cc1 [SPG-008]
IC50 (androgen receptor (AR) [4]; 24-hr Treatment): 3.31 µM | IC90 (androgen receptor (AR) [4]; 24-hr Treatment): 8.4 µM | Maximum Inhibition (androgen receptor (AR) [4]; 24-hr Treatment): 94% | IC50 (androgen receptor (AR) [4]; 72-hr Treatment): 2.38 µM | IC90 (androgen receptor (AR) [4]; 72-hr Treatment): 7.86 µM | Maximum Inhibition (androgen receptor (AR) [4]; 72-hr Treatment): 94%

O=C(Nc1ccc([N+](=O)[O-])cc1Cl)c1cc(Cl)ccc1O [Niclosamide]
Cell Viability ([1]; 0.62 μM): 34.13 ± 2.99 | Cell Viability ([1]; 1.85 μM): 30.65 ± 5.98 | Cell Viability ([1]; 5.56 μM): 25.07 ± 3.81 | Cell Viability ([1]; 16.67 μM): 15.93 ± 7.45 | Cell Viability ([1]; 50 μM): 0.20 ± 6.09 | IC50 at 72 h (in vitro): < 0.2 µM

CC12CCC(=O)C=C1C[C@@H](SC(=O)COCCOCCNC(=O)CC13CC4CC(CC(C4)C1)C3)C1C2CCC2(C)C1CC[C@@]21CCC(=O)O1 (stereo partly shown) [SPG-004]
inhibition at 0.1 µM (androgen receptor (AR) [6]; MDA-kb2, 24 h): 11% | inhibition at 1 µM (androgen receptor (AR) [6]; MDA-kb2, 24 h): 22% | inhibition at 3 µM (androgen receptor (AR) [6]; MDA-kb2, 24 h): 36% | inhibition at 10 µM (androgen receptor (AR) [6]; MDA-kb2, 24 h): 42% | Cell Viability ([7]; 0.1 μM): 97% | Cell Viability ([7]; 1 μM): 98% | Cell Viability ([7]; 3 μM): 99% | Cell Viability ([7]; 10 μM): 98%

O=C(CC12CC3CC(CC(C3)C1)C2)NCCOCCOCC(=O)N1CCN(c2ccc(OC[C@H]3CO[C@](Cn4ccnc4)(c4ccc(Cl)cc4Cl)O3)cc2)CC1 [SPG-005]
inhibition at 0.1 µM (androgen receptor (AR) [6]; 0.1 μM, MDA-kb2, 1.0 nM DHT, 24 hours): 9% | inhibition at 1 µM (androgen receptor (AR) [6]; 1.0 μM, MDA-kb2, 1.0 nM DHT, 24 hours): 14% | inhibition at 3 µM (androgen receptor (AR) [6]; 3.0 μM, MDA-kb2, 1.0 nM DHT, 24 hours): 18% | inhibition at 10 µM (androgen receptor (AR) [6]; 10 μM, MDA-kb2, 1.0 nM DHT, 24 hours): 80% | inhibition at 0.1 µM (androgen receptor (AR) [8]): 21% | inhibition at 1 µM (androgen receptor (AR) [8]): 29% | inhibition at 3 µM (androgen receptor (AR) [8]): 31% | inhibition at 10 µM (androgen receptor (AR) [8]): 90% | inhibition at 0.1 µM (androgen receptor (AR) [9]): 12% | inhibition at 1 µM (androgen receptor (AR) [9]): 19% | inhibition at 3 µM (androgen receptor (AR) [9]): 23% | inhibition at 10 µM (androgen receptor (AR) [9]): 65% | Cell Viability ([2]; 0.1 μM): 98% | Cell Viability ([2]; 1.0 μM): 98% | Cell Viability ([2]; 3.0 μM): 98% | Cell Viability ([2]; 10 μM): 98% | IC50 at 72 h [10]: 2 µM | Cell Viability ([11]; 0.62 μM): 77.01 ± 0.64 | Cell Viability ([11]; 1.85 μM): 62.57 ± 2.06 | Cell Viability ([11]; 5.56 μM): 1.98 ± 8.39 | Cell Viability ([11]; 16.67 μM): 0.11 ± 1.77 | Cell Viability ([11]; 50 μM): 0.09 ± 6.41 | Cell Viability ([11]; […]): 93.72 ± 1.69 | Cell Viability ([3]; 0.1 μM): 94% | Cell Viability ([3]; 1.0 μM): 92% | Cell Viability ([3]; 3.0 μM): 93% | Cell Viability ([3]; 10 μM): 94%

O=C(CC12CC3CC(CC(C3)C1)C2)N1CCN(c2ccc(OC[C@H]3CO[C@](Cn4ccnc4)(c4ccc(Cl)cc4Cl)O3)cc2)CC1 [SPG-006]
inhibition at 0.1 µM (androgen receptor (AR) [8]): 8% | inhibition at 1 µM (androgen receptor (AR) [8]): 19% | inhibition at 3 µM (androgen receptor (AR) [8]): 28% | inhibition at 10 µM (androgen receptor (AR) [8]): 48% | inhibition at 0.1 µM (androgen receptor (AR) [9]): 1% | inhibition at 1 µM (androgen receptor (AR) [9]): 5% | inhibition at 3 µM (androgen receptor (AR) [9]): 20% | inhibition at 10 µM (androgen receptor (AR) [9]): 37% | Cell Viability ([3]; 0.1 μM): 93% | Cell Viability ([3]; 1.0 μM): 94% | Cell Viability ([3]; 3.0 μM): 94% | Cell Viability ([3]; 10 μM): 94%
